Assays:
Format in all cases: in vivo
Thrips tabaci = Thrips tabaci sunflower leaf disc spray test; conditions: foliar, 168 h, application rate 200 ppm, sprayed sunflower leaf discs, population of mixed ages, 7 days, mortality
Experimental: Thrips Tabaci (Onion Thrips):
Sunflower leaf discs were placed on agar in a 24-well microtiter plate and sprayed with test solutions at an application rate of 200 ppm. […] After an incubation period of 7 days, samples were checked for mortality.

Spodoptera littoralis = Spodoptera littoralis cotton leaf disc spray test; conditions: foliar, 72 h, application rate 200 ppm, sprayed cotton leaf discs, L1 larvae, 3 days after treatment, mortality, feeding behavior, growth regulation
From the text: Spodoptera Littoralis (Egyptian Cotton Leafworm):
Cotton leaf discs were placed on agar in a 24-well microtiter plate and sprayed with test solutions at an application rate of 200 ppm. After drying, the leaf discs were infested with 5 L1 larvae. The samples were checked for mortality, feeding behavior, and growth regulation 3 days after treatment (DAT).

Heliothis virescens = Heliothis virescens egg / artificial diet test; conditions: 96 h, application rate 200 ppm (concentration in well 18 ppm), eggs 0-24 h old on artificial diet, 4 days, egg mortality, larval mortality, growth regulation
Experimental: Heliothis Virescens (Tobacco Budworm):
Eggs (0-24 h old) were placed in 24-well microtiter plate on artificial diet and treated with test solutions at an application rate of 200 ppm (concentration in well 18 ppm) by pipetting. After an incubation period of 4 days, samples were checked for egg mortality, larval mortality, and growth regulation.

Tetranychus urticae = Tetranychus urticae bean leaf disc spray test; conditions: foliar, 192 h, application rate 200 ppm, sprayed bean leaf discs, mite populations of mixed ages, 8 days, egg, larval and adult mortality
From the text: Tetranychus Urticae (Two-Spotted Spider Mite):
Bean leaf discs on agar in 24-well microtiter plates were sprayed with test solutions at an application rate of 200 ppm. After drying, the leaf discs are infested with mite populations of mixed ages. 8 days later, discs are checked for egg mortality, larval mortality, and adult mortality.

Diabrotica balteata = Diabrotica balteata artificial diet test; conditions: 120 h, application rate 200 ppm (concentration in well 18 ppm), L2 larvae, 5 days, larval mortality, growth regulation
Experimental: Diabrotica Balteata (Corn Root Worm):
(§1) A 24-well microtiter plate (MTP) with artificial diet was treated with test solutions at an application rate of 200 ppm (concentration in well 18 ppm) by pipetting. After drying, the MTP's were infested with L2 larvae (6-10 per well). After an incubation period of 5 days, samples were checked for larval mortality and growth regulation.

Plutella xylostella = Plutella xylostella artificial diet test; conditions: 144 h, application rate 200 ppm (concentration in well 18 ppm), L2 larvae, 6 days, larval mortality, growth regulation
Experimental: Plutella Xylostella (Diamond Back Moth):
as §1, with “24-well” for “A 24-well”, “(7-12” for “(6-10”, “6” for “5”

Measured: pest or weed control at 200 ppm

CCCCNC(=O)c1ccc(C2=NOC(c3cc(Cl)cc(Cl)c3)(C(F)(F)F)C2C)cc1C (centres unmarked) [E1, N-butyl-4-[5-(3,5-dichloro-phenyl)-4-methyl-5-trifluoromethyl-4,5-dihydro-isoxazol-3-yl]-2-methyl-benzamide]
≥ 80%: all assays above

CCCCNC(=O)c1ccc(C2=NOC(c3cc(Cl)cc(Cl)c3)(C(F)(F)F)C2Cl)cc1C (centres unmarked) [B1]
≥ 80%: all assays above

Cc1cc(C2=NOC(c3cc(Cl)cc(Cl)c3)(C(F)(F)F)C2Br)ccc1C(=O)NC1C[S+]([O-])C1 (single isomer, unassigned) [A25, 4-[4-bromo-5-(3,5-dichloro-phenyl)-5-trifluoromethyl-4,5-dihydro-isoxazol-3-yl]-2-methyl-N-(1-oxo-thietan-3-yl)-benzamide]
≥ 80%: Diabrotica balteata

Cc1cc(C2=NOC(c3cc(Cl)cc(Cl)c3)(C(F)(F)F)C2(F)F)ccc1C(=O)NCc1ccccn1 (centres unmarked) [C1, 4-[5-(3,5-dichloro-phenyl)-4,4-difluoro-5-trifluoromethyl-4,5-dihydro-isoxazol-3-yl]-2-methyl-N-pyridin-2-ylmethyl-benzamide]
not listed: Thrips tabaci
≥ 80%: all other assays above

Cc1cc(C2=NOC(c3cc(Cl)cc(Cl)c3)(C(F)(F)F)C2Br)ccc1C(=O)Nc1cccc(F)c1 (centres unmarked) [A15]
≥ 80%: all assays above

CCCCNC(=O)c1ccc(C2=NOC(c3cc(Cl)cc(Cl)c3)(C(F)(F)F)C2Br)c2ccccc12 (centres unmarked) [F3]
≥ 80%: Thrips tabaci | Spodoptera littoralis | Heliothis virescens | Plutella xylostella

Cc1cc(C2=NOC(c3cc(Cl)cc(Cl)c3)(C(F)(F)F)C2Cl)ccc1C(=O)NC1CSC1 (centres unmarked) [B21]
≥ 80%: all assays above

O=C(NC1CSC1)c1ccc(C2=NOC(c3cc(Cl)cc(Cl)c3)(C(F)(F)F)C2Br)c2ccccc12 (centres unmarked) [F21]
≥ 80%: all assays above

CSC1C(c2ccc(C(=O)NC3CSC3)c(C)c2)=NOC1(c1cc(Cl)cc(Cl)c1)C(F)(F)F (centres unmarked) [D3, 4-[5-(3,5-dichloro-phenyl)-4-methylsulfanyl-5-trifluoromethyl-4,5-dihydro-isoxazol-3-yl]-2-methyl-N-thietan-3-yl-benzamide]
not listed: Thrips tabaci
≥ 80%: all other assays above

Cc1cc(C2=NOC(c3cc(Cl)cc(Cl)c3)(C(F)(F)F)C2Cl)ccc1C(=O)Nc1cccc(F)c1 (centres unmarked) [B14]
≥ 80%: Spodoptera littoralis | Heliothis virescens | Plutella xylostella

CCCCNC(=O)c1ccc(C2=NOC(c3cc(Cl)cc(Cl)c3)(C(F)(F)F)C2S(C)(=O)=O)cc1C (centres unmarked) [D2, N-butyl-4-[5-(3,5-dichloro-phenyl)-4-methylsulfonyl-5-trifluoromethyl-4,5-dihydro-isoxazol-3-yl]-2-methyl-benzamide]
≥ 80%: Spodoptera littoralis | Plutella xylostella

Cc1cc(C2=NOC(c3cc(Cl)cc(Cl)c3)(C(F)(F)F)C2Cl)ccc1C(=O)NCc1ccccc1 (centres unmarked) [B8]
≥ 80%: all assays above

Cc1cc(C2=NOC(c3cc(Cl)cc(Cl)c3)(C(F)(F)F)C2C)ccc1C(=O)NC1CSC1 (centres unmarked) [E2, 4-[5-(3,5-dichloro-phenyl)-4-methyl-5-trifluoromethyl-4,5-dihydro-isoxazol-3-yl]-2-methyl-N-thietan-3-yl-benzamide]
≥ 80%: all assays above

CCC(C)NC(=O)c1ccc(C2=NOC(c3cc(Cl)cc(Cl)c3)(C(F)(F)F)C2Br)c2ccccc12 (centres unmarked) [F6]
not listed: Tetranychus urticae
≥ 80%: all other assays above

CCNC(=O)c1ccc(C2=NOC(c3cc(Cl)cc(Cl)c3)(C(F)(F)F)C2Cl)cc1C (centres unmarked) [B3]
≥ 80%: all assays above

Cc1cc(C2=NOC(c3cc(Cl)cc(Cl)c3)(C(F)(F)F)C2Cl)ccc1C(=O)NC1CCC1 (centres unmarked) [B23]
≥ 80%: all assays above

CCNC(=O)c1ccc(C2=NOC(c3cc(Cl)cc(Cl)c3)(C(F)(F)F)C2Br)c2ccccc12 (centres unmarked) [F2]
≥ 80%: Diabrotica balteata

CCC(C)NC(=O)c1ccc(C2=NOC(c3cc(Cl)cc(Cl)c3)(C(F)(F)F)C2Cl)cc1C (centres unmarked) [B6]
≥ 80%: all assays above

Cc1cc(C2=NOC(c3cc(Cl)cc(Cl)c3)(C(F)(F)F)C2S(C)(=O)=O)ccc1C(=O)NC1CSC1 (centres unmarked) [D4, 4-[5-(3,5-dichloro-phenyl)-4-methylsulfonyl-5-trifluoromethyl-4,5-dihydro-isoxazol-3-yl]-2-methyl-N-thietan-3-yl-benzamide]
≥ 80%: Heliothis virescens | Tetranychus urticae

CCCCNC(=O)c1ccc(C2=NOC(c3cc(Cl)cc(Cl)c3)(C(F)(F)F)C2SC)cc1C (centres unmarked) [D1, N-butyl-4-[5-(3,5-dichloro-phenyl)-4-methylsulfanyl-5-trifluoromethyl-4,5-dihydro-isoxazol-3-yl]-2-methyl-benzamide]
≥ 80%: Spodoptera littoralis | Heliothis virescens | Diabrotica balteata | Plutella xylostella

O=C(Nc1cccc(F)c1)c1ccc(C2=NOC(c3cc(Cl)cc(Cl)c3)(C(F)(F)F)C2Br)c2ccccc12 (centres unmarked) [F14]
not listed: Tetranychus urticae
≥ 80%: all other assays above

CCCCNC(=O)c1ccc(C2=NOC(c3cc(Cl)cc(Cl)c3)(C(F)(F)F)C2Br)cc1C (centres unmarked) [A1, 4-[4-bromo-5-(3,5-dichloro-phenyl)-5-trifluoromethyl-4,5-dihydro-isoxazol-3-yl]-N-butyl-2-methyl-benzamide]
not listed: Thrips tabaci
≥ 80%: all other assays above

O=C(NCc1ccccc1)c1ccc(C2=NOC(c3cc(Cl)cc(Cl)c3)(C(F)(F)F)C2Br)c2ccccc12 (centres unmarked) [F8]
not listed: Tetranychus urticae
≥ 80%: all other assays above

— patent US8822502B2, “Insecticidal compounds” (Syngenta Crop Protection LLC, priority 2008, dated 2014)
